Data taken from publication PMC9313945, “Peptide Aggregation Induced Immunogenic Rupture (PAIIR)” (Advanced Science, 2022).

Columns and labels:
OVCAR‐8 cells [1] = test: Live-dead imaging of OVCAR-8 cells; type: cell-based, human; details: OVCAR-8, 0.5 mM peptide, 6 h, RPMI with 10% FBS; negative peptide added first, then positive
Protocol: We used the human ovarian cancer cell line OVCAR‐8 as our initial model to identify the effect of the peptides on cells. All cell culture experiments were performed in an RPMI cell culture medium with 10% FBS. At 0.5 mM (i.e., above the overall CAC), the individual peptides mixed on the cells by promptly adding the first negative, then positive counterparts. The viability of the cells was measured for 6h through live‐dead imaging (Figure 3A). […] Because the peptides, if aggregate, form one‐dimensional structures, the shape of the aggregates is not likely to be effective on the action of the peptides. [II] has the lowest CAC and highest ordered aggregation (Figure 2B–D). Additionally, the equilibrium time of [II] aggregations was the shortest among the tried groups (Table 1 ). These all indicate that [II] peptides have the highest affinity to each other, which creates aggregations strong and fast enough to induce cell death.
To understand the effect of peptide aggregates versus peptides alone on the cell death identified with [WW] and [II], we performed a live/dead assay with individual peptides at 0.5 mM after 6h (Figure 3A). […] Similarly, the negative [WW] […] Positive charged peptides containing W are promiscuous residues for membrane damaging peptides, possibly because of W's “anchoring” role; W is abundant in membrane proteins, particularly near the lipid–water interface.^[ [37], [38] ^]
Positively and negatively charged self‐assembling peptides were mixed 30 min prior to experiment except where otherwise stated. The viability of the cell lines was measured by using CellTiter‐Glo 2.0 Reagent (Promega G9248). The luminescent signal was measured in accordance with the manufacturer's instructions. Measurements were carried out with BioTek Neo2SM microplate reader and relative viability was calculated. Live‐Dead assay was carried out using Viability/Cytotoxicity Assay kit (BIOTIUM 30002). After peptide treatment, cells were treated with calcein and ethidium homodimer in accordance with the manufacturer's instructions. […]

OVCAR‐8 cells [2] = test: Caspase-3 and GSDME cleavage, western blot; type: cell-based, human; details: OVCAR-8, 50 µM cisplatin for 24 h
Text: Regulated cell death via an inducer is concentration and time‐dependent and therefore controllable. On the other hand, unregulated cell death cannot be controlled to the same extent as it mainly results from mechanical forces or temperature. The unregulated cell death releases an instantaneous burst of DAMPs, while the DAMP release from regulated cell death is prolonged. Therefore, regulated ICD is desired for a controlled immune response. Regulated necrotic cell deaths are caspase‐dependent.^[ [50], [51] ^] To identify whether [II]‐induced cell death is regulated, we analyzed the cleavage of caspase‐3, a known mediator of apoptosis, and GSDME mediated pyroptosis (regulated necrosis).^[ [2], [52] ^] We compared the caspase‐3 cleavage among different cell death modalities; we used cisplatin ‐ a known apoptosis inducer in the OVCAR‐8 cell line.^[ [53] ^] We also used heat treatment to induce multiple cell death modalities, including necrosis, apoptosis, and necroptosis.^[ [54] ^] Additionally, we applied a freeze/thaw (F/T) method, a common technique to induce unregulated necrosis.^[ [55] ^] […]
Protein samples were diluted in Laemmli buffer and boiled for 5 min at 96 °C. […] Lastly, western blotting luminol reagent solution was added on top of the membranes, and chemiluminescence signal was detected by Azure c600 Imaging Biosystems.

## EFFWWE
OVCAR‐8 cells [1]
  Cell viability / cell death, live-dead imaging: did not show any cell death

## N.N.[Cl][Pt][Cl] [Cisplatin, cisplatin]
OVCAR‐8 cells [2]
  Caspase-3 cleavage: showed caspase‐3 cleavage

## KFFIIK
OVCAR‐8 cells [1]
  Cell viability / cell death, live-dead imaging: does not cause cell death

## KFFWWK
OVCAR‐8 cells [1]
  Cell viability / cell death, live-dead imaging: induced the cell death
